The target of test [1] is T1, SARS-CoV-2 PLpro (nsp3 1564–1878) (Severe acute respiratory syndrome coronavirus 2, UniProt P0DTD1). The test is described as follows: biochemical. The following applies: high concentration screen, read-out: % of control remaining. Also noted: FRET-quenched peptide (Pro3) cleavage by PLpro, 10 min pre-incubation, slope over 20 min, normalised to no-compound control.
The target of test [2] is T1, SARS-CoV-2 PLpro (nsp3 1564–1878). The test is described as follows: biochemical. The settings on record: low concentration screen, read-out: % of control remaining. Also noted: FRET-quenched peptide (Pro3) cleavage by PLpro, 10 min pre-incubation, slope over 20 min, normalised to no-compound control.

This is an account of results in publication PMC8286840, “Identifying SARS-CoV-2 antiviral compounds by screening for small molecule inhibitors of Nsp3 papain-like protease” (Biochemical Journal, 2021).

The structures appear in SMILES notation. Counter-ions that a name gives are not always drawn. Like-named read-outs stand apart in the source and are kept apart here.

Consider `CCOCc1nc2c(N)nc3ccccc3c2n1CC(C)(C)O` [Resiquimod], for which the remaining activity at 3.75 µM in test [1] (Well no.=5488) is 107%; in test [1] (Well no.=8499) it was 106%. In addition, the figures for the remaining activity at 1.25 µM in test [2] (Well no.=5488) and in test [2] (Well no.=8499) were 107% and 102%, respectively.
On to `Oc1ccc(/C=C/c2cc(O)cc(O)c2)cc1` [Resveratrol], for which the remaining activity at 3.75 µM in test [1] (Well no.=1492) stood at 95.7%; in test [1] (Well no.=3130), 102%; in test [1] (Well no.=3847), 101%. In addition, the figures for the remaining activity at 1.25 µM in test [2] (Well no.=1492), in test [2] (Well no.=3130) and in test [2] (Well no.=3847) were 94.9%, 101% and 103%, respectively.
With `CC1=C(/C=C/C(C)=C/C=C/C(C)=C/C(=O)Nc2ccc(O)cc2)C(C)(C)CCC1` [Retinoic acid p-hydroxyanilide], in test [1] (Well no.=708), the remaining activity at 3.75 µM is 94.4%. Moreover, the remaining activity at 1.25 µM in test [2] (Well no.=708) turned out to be 97.5%.
As to `CC1=C(/C=C/C(C)=C/C=C/C(C)=C/C(=O)O)C(C)(C)CCC1` [Retinoic acid], the remaining activity at 3.75 µM in test [1] (Well no.=1252) was determined as 98.8%; in test [1] (Well no.=1628), 99.6%; in test [1] (Well no.=3132), 104%; in test [1] (Well no.=4426), 101%; in test [1] (Well no.=6163) it was 108%. For the same compound, the remaining activity at 1.25 µM in test [2] (Well no.=1252) was 98%; in test [2] (Well no.=1628) it was 95.7%; in test [2] (Well no.=3132) it was 102%; in test [2] (Well no.=4426) it was 101%; in test [2] (Well no.=6163), 106%.
Regarding `CCCCCCCCCCCCCCCC(=O)OC/C=C(C)/C=C/C=C(C)/C=C/C1=C(C)CCCC1(C)C` [Retinyl palmitate], the remaining activity at 3.75 µM in test [1] (Well no.=4134) amounted to 97.6%. Also, the remaining activity at 1.25 µM in test [2] (Well no.=4134) came out at 96.7%.
Turning to `C/C=C1\C[C@@H](C)[C@](O)(CO)C(=O)OCC2=CCN3CC[C@@H](OC1=O)[C@@H]23` [Retrorsine], the remaining activity at 3.75 µM in test [1] (Well no.=3298) turned out to be 104%. In addition, the remaining activity at 1.25 µM in test [2] (Well no.=3298) was 99.9%.
On to `O=C(NCCCN1CCOCC1)c1cnn2c(-c3ccccc3)cc(-c3ccccc3)nc12` [Reversan], for which the remaining activity at 3.75 µM in test [1] (Well no.=5656) came out at 98.2%. The remaining activity at 1.25 µM in test [2] (Well no.=5656) was found to be 96.9%.
In the case of `c1nc2c(NC3CCCCC3)nc(Nc3ccc(N4CCOCC4)cc3)nc2[nH]1` [Reversine], the remaining activity at 3.75 µM in test [1] (Well no.=2621) is 100%. Also, the remaining activity at 1.25 µM in test [2] (Well no.=2621) turned out to be 98.6%.
Regarding `COc1ccc(/C=C/c2cc(O)cc(O[C@@H]3O[C@H](CO)[C@@H](O)[C@H](O)[C@H]3O)c2)cc1O` [Rhapontin], in test [1] (Well no.=3300), the remaining activity at 3.75 µM came to 101%. In test [2] (Well no.=3300), the remaining activity at 1.25 µM came to 102%.
For `c1ccc2c(-c3ccncc3)c[nH]c2c1` [Rho Kinase Inhibitor III, Rockout], the remaining activity at 3.75 µM in test [1] (Well no.=2557) came out at 103%. In test [2] (Well no.=2557), the remaining activity at 1.25 µM was 101%.
For the compound `Cc1cncc2cccc(S(=O)(=O)N3CCCN(C(=O)CN)C[C@@H]3C)c12` [Rho Kinase Inhibitor IV], the remaining activity at 3.75 µM in test [1] (Well no.=2559) was found to be 105%. In test [2] (Well no.=2559), the remaining activity at 1.25 µM worked out at 104%.
`C[C@@H]1O[C@@H](O[C@H]2[C@H](Oc3cc(O)c4c(=O)cc(-c5ccc(O)cc5)oc4c3)O[C@H](CO)[C@@H](O)[C@@H]2O)[C@H](O)[C@H](O)[C@H]1O` [Rhoifolin]: the remaining activity at 3.75 µM in test [1] (Well no.=3733) was found to be 98.5%. Besides, in test [2] (Well no.=3733), the remaining activity at 1.25 µM is 95.5%.
Turning to `N[C@H](Cc1c[nH]c2ccccc12)C(=O)N/N=C/c1ccc2nccnc2c1` [Rhosin (hydrochloride)], the remaining activity at 3.75 µM in test [1] (Well no.=7170) was 93%. For the same compound, the remaining activity at 1.25 µM in test [2] (Well no.=7170) was 91.4%.
Regarding `NC(=O)c1ncn([C@@H]2O[C@H](CO)[C@@H](O)[C@H]2O)n1` [Ribavirin], the remaining activity at 3.75 µM was 97.1% in test [1] (Well no.=1256) and 98.2% in test [1] (Well no.=2199). Further, the remaining activity at 1.25 µM is 96.8% in test [2] (Well no.=1256) and 96.4% in test [2] (Well no.=2199).
Consider `OC[C@@H](O)[C@@H](O)[C@@H](O)CO` [Ribitol], for which the remaining activity at 3.75 µM in test [1] (Well no.=6775) was found to be 102%. Moreover, in test [2] (Well no.=6775), the remaining activity at 1.25 µM worked out at 104%.
`CCCCCC[C@@H](O)C/C=C\CCCCCCCC(=O)O` [Ricinoleic acid]: the remaining activity at 3.75 µM in test [1] (Well no.=4484) stood at 99.9%. In test [2] (Well no.=4484), the remaining activity at 1.25 µM is 102%.
`CCC[S+]([O-])c1ccc2[nH]c(NC(=O)OC)nc2c1` (stereo not shown) [Ricobendazole]: the remaining activity at 3.75 µM in test [1] (Well no.=2021) is 106%. Also, the remaining activity at 1.25 µM in test [2] (Well no.=2021) is 103%.
For `CO[C@H]1/C=C/O[C@@]2(C)Oc3c(C)c(O)c4c(O)c(c(/C=N/N5CCN(C)CC5)c(O)c4c3C2=O)NC(=O)/C(C)=C\C=C\[C@H](C)[C@H](O)[C@@H](C)[C@@H](O)[C@@H](C)[C@H](OC(C)=O)[C@@H]1C` [Rifampicin], the remaining activity at 3.75 µM turned out to be 102% in test [1] (Well no.=1668) and 97.7% in test [1] (Well no.=3138). For the same compound, the figures for the remaining activity at 1.25 µM in test [2] (Well no.=1668) and in test [2] (Well no.=3138) were 103% and 101%, respectively.
Take `COc1cc(OC)c(/C=C/S(=O)(=O)Cc2ccc(OC)c(NCC(=O)O)c2)c(OC)c1` [Rigosertib (sodium)]: the remaining activity at 3.75 µM in test [1] (Well no.=6400) came out at 97.7%. The remaining activity at 1.25 µM in test [2] (Well no.=6400) worked out at 98.5%.
Turning to `C1COC(NC(C2CC2)C2CC2)=N1` [Rilmenidine hemifumarate], in test [1] (Well no.=1450), the remaining activity at 3.75 µM stood at 99.9%. Also, the remaining activity at 1.25 µM in test [2] (Well no.=1450) turned out to be 101%.
`CC(N)C12CC3CC(CC(C3)C1)C2` (stereo not shown) [Rimantadine]: in test [1] (Well no.=2203), the remaining activity at 3.75 µM was found to be 99.8%. Further, in test [2] (Well no.=2203), the remaining activity at 1.25 µM stood at 99.7%.
On to `CC[C@H](C(=O)N1CCCC[C@H]1C(=O)O[C@H](CCc1ccc(OC)c(OC)c1)c1cccc(OCC(=O)NCCNC(=O)COc2cccc([C@@H](CCc3ccc(OC)c(OC)c3)OC(=O)[C@@H]3CCCCN3C(=O)[C@@H](CC)c3cc(OC)c(OC)c(OC)c3)c2)c1)c1cc(OC)c(OC)c(OC)c1` [Rimiducid], for which the remaining activity at 3.75 µM in test [1] (Well no.=7156) was found to be 91.8%; in test [1] (Well no.=8596), 89.6%. In addition, the remaining activity at 1.25 µM is 94.6% in test [2] (Well no.=7156) and 96.4% in test [2] (Well no.=8596).
For the compound `Cc1c(C(=O)NN2CCCCC2)nn(-c2ccc(Cl)cc2Cl)c1-c1ccc(Cl)cc1` [Rimonabant (Hydrochloride)], in test [1] (Well no.=8011), the remaining activity at 3.75 µM was 90.1%. Further, the remaining activity at 1.25 µM in test [2] (Well no.=8011) is 99.6%.
`Cc1c(C(=O)NN2CCCCC2)nn(-c2ccc(Cl)cc2Cl)c1-c1ccc(Cl)cc1` [Rimonabant]: the remaining activity at 3.75 µM in test [1] (Well no.=8438) came out at 97%. Besides, the remaining activity at 1.25 µM in test [2] (Well no.=8438) turned out to be 92.2%.
For the compound `COC(=O)N(C)c1c(N)nc(-c2nn(Cc3ccccc3F)c3ncccc23)nc1N` [Riociguat], in test [1] (Well no.=6654), the remaining activity at 3.75 µM was 108%. Moreover, in test [2] (Well no.=6654), the remaining activity at 1.25 µM turned out to be 107%.
